Test results taken from patent US11993581B2, “Pyridazine compounds for inhibiting Nav1.8” (Lieber Institute, Inc., priority 2018, dated 2024).

Biological target: T1, human Nav1.8 (hNav1.8) ion channel (Homo sapiens, UniProt Q9Y5Y9)
T1 construct: expressed in transfected cells
Assay: Nav1.8 inhibition, estimated IC50 (Nav1.8 fluorescence, PatchXpress and/or IonFlux HT automated patch clamp assay)
Type: cell-based
Conditions: HEK293 cells stably expressing hNav1.8; determined using one or more of the described methods; read-out: Activity range (estimated IC50)
Procedure: The ability of pyridine carboxamide derivatives exemplified above to inhibit the Nav1.8 channel was determined using one or more of the methods described below.
HEK Nav1.8 β1/β2 Stably Expressing Cell Line
A HEK293 cell line stably expressing the human Nav1.8 (hNav1.8) ion channel with β1/β2 subunits was constructed. The cell line is suitable for IC50 determination in fluorescence and electrophysiological based assays. It is also suitable to conduct mechanism of action pharmacology studies in electrophysiological assays. HEK293 Nav1.8 cells are grown as adherent monolayers in DMEM/high glucose media, 10% fetal bovine serum, Na pyruvate (2 mM), Hepes (10 mM) with selection agents G418 (400 mg/L) and puromycin (0.5 mg/L) at 37 degrees C., 10% CO2.
Nav1.8 Fluorescence Inhibition Assay
Compounds were made up to or supplied as a 10-mM stock solution using DMSO as the vehicle. Concentration-response curves were generated using a Matrix multichannel pipettor. Compound source plates were made by diluting 10 mM compound stocks to create 500 μM (100×) solutions in DMSO in 96-well v-bottom plates. Compounds were then serially diluted in 100% DMSO to generate a 5 point, 4-fold dilution scheme dose response curve. 2 μL of the 100× dose response curves were then added to preincubation and stimulation assay plates. 100 μL of pre-incubation buffer and 200 μl of stimulation buffer was then added to the plates resulting in a final assay test concentration range of 5 μM to 0.02 μM with a final DMSO concentration of 1%.
On the day of assay, plates were washed to remove cell culture media using 2K EBSS buffer (135 mM NaCl, 2 mM KCl, 5 mM Glucose, 2 mM CaCl2, 1 mM MgCl2, 10 mM HEPES, pH 7.4). The Na-sensitive fluorescent dye, Asante Natrium Green-2 (ANG-2) was incubated for 60 min to allow equilibration and then washed with 2K EBSS. Plates were then transferred to a fluorescence plate reader (FLIPR™, Molecular Devices) for fluorescence measurement using an excitation wavelength of 490 nm and an emission wavelength of 565 nm. Compounds were pre-incubated for 5 min at final test concentration in the presence of ouabain (30 μM) to inhibit Na+ efflux through Na+/K+ exchanger. Following the pre-incubation phase, hNav1.8 channels were stimulated with 10 μM of the pyrethroid deltamethrin to prevent channel inactivation. The assay was run for 15 minutes with vehicle and 30 μM tetracaine serving as negative and positive controls, respectively. The peak change in fluorescence relative to negative and positive control wells was calculated and fit with a logistic equation to determine IC50.
PatchXpress Nav1.8 Inhibition Assay
HEK-Nav1.8 β1/β2 cells were recorded in whole cell patch-clamp using the PatchXpress automated patch clamp platforms (Molecular Devices). Cell suspensions were obtained by trypsinization of adherent monolayers, followed by gentle rocking for minimally 30 min. Compounds were prepared from 10 mM DMSO stocks.
Nav1.8 channel variants were evaluated using Protocol 1 in which cells were initially voltage clamped at a holding potential of −100 mV to maintain Nav1.8 in a closed resting state. After current amplitude becomes stable, the mid-point voltage of steady state inactivation was determined for each cell using a series of 5 sec conditioning steps to increasingly depolarized voltages (−100 to 0 mV) The holding potential was then reset to a voltage that produces ˜50% inactivation (Vhalf-set automatically via PatchXpress scripts) so that closed and inactivated channel inhibition could be assessed. Protocol 1 was run at a frequency of 0.1 Hz until current amplitude is steady (automatically determined by PatchXpress scripts). The effect of test reagent on Nav current amplitude was monitored using custom PatchXpress stability scripts which determines the timing of compound addition and washout.
Data were processed and analyzed using DataXpress 2.0 (Molecular Devices). […]

T1 sequence (Q9Y5Y9 whole entry): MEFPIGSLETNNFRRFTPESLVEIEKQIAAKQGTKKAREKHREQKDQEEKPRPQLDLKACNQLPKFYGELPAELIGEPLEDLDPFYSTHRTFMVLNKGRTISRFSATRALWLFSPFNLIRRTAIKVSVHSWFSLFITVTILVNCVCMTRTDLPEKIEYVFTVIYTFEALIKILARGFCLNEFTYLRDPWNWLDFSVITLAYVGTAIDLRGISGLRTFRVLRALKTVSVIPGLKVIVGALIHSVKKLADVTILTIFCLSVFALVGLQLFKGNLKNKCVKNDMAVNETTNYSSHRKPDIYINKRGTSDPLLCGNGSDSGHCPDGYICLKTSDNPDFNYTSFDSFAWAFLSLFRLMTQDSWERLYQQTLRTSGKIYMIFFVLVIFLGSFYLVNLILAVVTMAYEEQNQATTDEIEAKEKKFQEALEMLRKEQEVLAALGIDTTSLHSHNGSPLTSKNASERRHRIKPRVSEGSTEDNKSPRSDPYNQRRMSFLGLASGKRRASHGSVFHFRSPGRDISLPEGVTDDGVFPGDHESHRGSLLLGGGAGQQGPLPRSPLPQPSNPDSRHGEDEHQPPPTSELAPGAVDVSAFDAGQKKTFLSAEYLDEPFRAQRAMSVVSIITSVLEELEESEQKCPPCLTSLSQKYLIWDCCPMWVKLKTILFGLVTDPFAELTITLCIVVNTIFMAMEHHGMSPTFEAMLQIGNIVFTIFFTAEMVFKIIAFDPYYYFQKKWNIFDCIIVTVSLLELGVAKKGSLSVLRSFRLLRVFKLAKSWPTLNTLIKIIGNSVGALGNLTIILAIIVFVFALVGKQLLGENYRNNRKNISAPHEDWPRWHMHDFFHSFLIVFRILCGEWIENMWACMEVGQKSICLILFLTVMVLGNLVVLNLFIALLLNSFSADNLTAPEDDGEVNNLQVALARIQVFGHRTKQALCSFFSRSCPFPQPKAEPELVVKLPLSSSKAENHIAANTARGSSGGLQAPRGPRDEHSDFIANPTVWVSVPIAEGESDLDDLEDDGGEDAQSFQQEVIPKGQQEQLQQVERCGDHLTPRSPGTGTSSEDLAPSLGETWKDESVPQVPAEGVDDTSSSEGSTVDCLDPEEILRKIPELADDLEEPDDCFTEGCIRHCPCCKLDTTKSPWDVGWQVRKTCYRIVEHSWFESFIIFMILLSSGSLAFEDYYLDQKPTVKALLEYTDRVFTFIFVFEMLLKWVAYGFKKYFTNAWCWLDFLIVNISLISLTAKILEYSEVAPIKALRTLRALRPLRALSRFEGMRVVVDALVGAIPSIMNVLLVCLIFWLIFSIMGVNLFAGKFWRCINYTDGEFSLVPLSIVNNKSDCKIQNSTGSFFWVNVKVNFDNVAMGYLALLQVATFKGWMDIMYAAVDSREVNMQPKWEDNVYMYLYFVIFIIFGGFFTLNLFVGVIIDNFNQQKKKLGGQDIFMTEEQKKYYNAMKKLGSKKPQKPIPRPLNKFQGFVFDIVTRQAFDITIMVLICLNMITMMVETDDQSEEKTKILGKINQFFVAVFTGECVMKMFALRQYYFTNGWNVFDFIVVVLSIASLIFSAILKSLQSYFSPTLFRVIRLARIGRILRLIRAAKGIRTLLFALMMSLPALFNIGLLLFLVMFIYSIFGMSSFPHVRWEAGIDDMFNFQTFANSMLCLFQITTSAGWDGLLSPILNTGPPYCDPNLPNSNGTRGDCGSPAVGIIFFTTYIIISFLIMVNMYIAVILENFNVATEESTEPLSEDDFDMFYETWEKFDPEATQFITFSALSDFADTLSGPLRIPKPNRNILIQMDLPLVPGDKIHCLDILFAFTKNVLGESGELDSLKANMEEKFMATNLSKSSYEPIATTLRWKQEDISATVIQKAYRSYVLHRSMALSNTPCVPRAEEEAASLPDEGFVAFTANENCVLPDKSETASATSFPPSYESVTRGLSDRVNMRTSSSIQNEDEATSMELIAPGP
T1 sequence (Q07699 19-218 partner): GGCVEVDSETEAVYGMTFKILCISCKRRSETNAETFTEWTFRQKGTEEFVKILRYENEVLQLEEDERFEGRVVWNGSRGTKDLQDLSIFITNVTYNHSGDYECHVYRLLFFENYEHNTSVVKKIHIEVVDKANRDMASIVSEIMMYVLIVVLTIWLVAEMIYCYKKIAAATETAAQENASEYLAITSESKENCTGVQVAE

IC50 | Compound
< 0.5 µM | 6-[4-(difluoromethoxy)phenyl]-N-[(2-morpholinophenyl)methyl]pyridazine-4-carboxamide [Example 56]
< 0.5 µM | O=C(NCc1cccnc1N1CCOCC1)c1cnnc(-c2ccc(OCC3CC3)c(Cl)c2)c1 [Example 1, 6-(3-chloro-4-(cyclopropylmethoxy)phenyl)-N-((2-morpholinopyridin-3-yl)methyl)pyridazine-4-carboxamide]
> 1 µM | O=C(NCc1cccnc1N1CCOCC1)c1cnnc(-c2ccc(Cl)nc2)c1 [Example 2, 6-(6-chloro-3-pyridyl)-N-[(2-morpholino-3-pyridyl)methyl]pyridazine-4-carboxamide]
0.5 to 1 µM | O=C(NCc1cccnc1N1CCOCC1)c1cnnc(-c2cccc(Cl)c2)c1 [Example 3, 6-(3-chlorophenyl)-N-[(2-morpholino-3-pyridyl)methyl]pyridazine-4-carboxamide]
< 0.5 µM | Cc1cc(Cl)ccc1-c1cc(C(=O)NCc2cccnc2N2CCOCC2)cnn1 [Example 4, 6-(4-chloro-2-methyl-phenyl)-N-[(2-morpholino-3-pyridyl)methyl]pyridazine-4-carboxamide]
< 0.5 µM | O=C(NCc1cccnc1N1CCOCC1)c1cnnc(-c2ccc(OC(F)(F)F)cc2)c1 [Example 6, N-[(2-morpholino-3-pyridyl)methyl]-6-[4-(trifluoromethoxy)phenyl]pyridazine-4-carboxamide]
< 0.5 µM | O=C(NCc1cccnc1N1CCOCC1)c1cnnc(-c2ccc(OCC(F)(F)F)cc2)c1 [Example 7, N-[(2-morpholino-3-pyridyl)methyl]-6-[4-(2,2,2-trifluoroethoxy)phenyl]pyridazine-4-carboxamide]
< 0.5 µM | O=C(NCc1cccnc1N1CCOCC1)c1cnnc(-c2ccc(OCC3CC3)cc2)c1 [Example 8, 6-[4-(cyclopropylmethoxy)phenyl]-N-[(2-morpholino-3-pyridyl)methyl]pyridazine-4-carboxamide]
< 0.5 µM | CCOc1ccc(-c2cc(C(=O)NCc3cccnc3N3CCOCC3)cnn2)cc1Cl [Example 9, 6-(3-chloro-4-ethoxy-phenyl)-N-[(2-morpholino-3-pyridyl)methyl]pyridazine-4-carboxamide]
< 0.5 µM | CCCOc1ccc(-c2cc(C(=O)NCc3cccnc3N3CCOCC3)cnn2)cc1Cl [Example 10, 6-(3-chloro-4-propoxy-phenyl)-N-[(2-morpholino-3-pyridyl)methyl]pyridazine-4-carboxamide]
< 0.5 µM | CC(C)Oc1ccc(-c2cc(C(=O)NCc3cccnc3N3CCOCC3)cnn2)cc1Cl [Example 11, 6-(3-chloro-4-isopropoxy-phenyl)-N-[(2-morpholino-3-pyridyl)methyl]pyridazine-4-carboxamide]
< 0.5 µM | CCOc1ccc(-c2cc(C(=O)NCc3cccnc3N3CCOCC3)cnn2)cc1F [Example 12, 6-(4-ethoxy-3-fluoro-phenyl)-N-[(2-morpholino-3-pyridyl)methyl]pyridazine-4-carboxamide]
< 0.5 µM | CCCOc1ccc(-c2cc(C(=O)NCc3cccnc3N3CCOCC3)cnn2)cc1F [Example 13, 6-(3-fluoro-4-propoxy-phenyl)-N-[(2-morpholino-3-pyridyl)methyl]pyridazine-4-carboxamide]
< 0.5 µM | CC(C)Oc1ccc(-c2cc(C(=O)NCc3cccnc3N3CCOCC3)cnn2)cc1F [Example 14, 6-(3-fluoro-4-isopropoxy-phenyl)-N-[(2-morpholino-3-pyridyl)methyl]pyridazine-4-carboxamide]
< 0.5 µM | O=C(NCc1cccnc1N1CCOCC1)c1cnnc(-c2ccc(OC3CC3)cc2)c1 [Example 15, 6-[4-(cyclopropoxy)phenyl]-N-[(2-morpholino-3-pyridyl)methyl]pyridazine-4-carboxamide]
< 0.5 µM | O=C(NCc1cccnc1N1CCOCC1)c1cnnc(-c2ccc(OCC3CC3)nc2)c1 [Example 16, 6-[6-(cyclopropylmethoxy)-3-pyridyl]-N-[(2-morpholino-3-pyridyl)methyl]pyridazine-4-carboxamide]
> 1 µM | O=C(NCc1cccnc1N1CCOCC1)c1cnnc(-c2ccc(Cl)cc2)c1 [Example 17, 6-(4-chlorophenyl)-N-[(2-morpholino-3-pyridyl)methyl]pyridazine-4-carboxamide]
< 0.5 µM | O=C(NCc1cccnc1N1CC2(COC2)C1)c1cnnc(-c2ccc(OCC3CC3)c(Cl)c2)c1 [Example 19, 6-[3-chloro-4-(cyclopropylmethoxy)phenyl]-N-[[2-(2-oxa-6-azaspiro[3.3]heptan-6-yl)-3-pyridyl]methyl]pyridazine-4-carboxamide]
< 0.5 µM | O=C(NCc1cccnc1OCC(F)(F)F)c1cnnc(-c2ccc(OCC3CC3)c(Cl)c2)c1 [Example 20, 6-[3-chloro-4-(cyclopropylmethoxy)phenyl]-N-[[2-(2,2,2-trifluoroethoxy)-3-pyridyl]methyl]pyridazine-4-carboxamide]
< 0.5 µM | O=C(NCc1cccnc1N1CCCOCC1)c1cnnc(-c2ccc(OCC3CC3)c(Cl)c2)c1 [Example 21, 6-[3-chloro-4-(cyclopropylmethoxy)phenyl]-N-[[2-(1,4-oxazepan-4-yl)-3-pyridyl]methyl]pyridazine-4-carboxamide]
< 0.5 µM | CC1CN(c2ncccc2CNC(=O)c2cnnc(-c3ccc(OCC4CC4)c(Cl)c3)c2)CCO1 (stereo not drawn) [Example 22, 6-[3-chloro-4-(cyclopropylmethoxy)phenyl]-N-[[2-(2-methylmorpholin-4-yl)-3-pyridyl]methyl]pyridazine-4-carboxamide]
< 0.5 µM | CC1COCCN1c1ncccc1CNC(=O)c1cnnc(-c2ccc(OCC3CC3)c(Cl)c2)c1 (stereo not drawn) [Example 23, 6-[3-chloro-4-(cyclopropylmethoxy)phenyl]-N-[[2-(3-methylmorpholin-4-yl)-3-pyridyl]methyl]pyridazine-4-carboxamide]
< 0.5 µM | Cc1ccc(CNC(=O)c2cnnc(-c3ccc(OCC4CC4)c(Cl)c3)c2)c(N2CCOCC2)n1 [Example 24, 6-[3-chloro-4-(cyclopropylmethoxy)phenyl]-N-[(6-methyl-2-morpholino-3-pyridyl)methyl]pyridazine-4-carboxamide]
< 0.5 µM | Cc1ccnc(N2CCOCC2)c1CNC(=O)c1cnnc(-c2ccc(OCC3CC3)c(Cl)c2)c1 [Example 25, 6-[3-chloro-4-(cyclopropylmethoxy)phenyl]-N-[(4-methyl-2-morpholino-3-pyridyl)methyl]pyridazine-4-carboxamide]
> 1 µM | Cc1cnc(N2CCOCC2)c(CNC(=O)c2cnnc(-c3ccc(OCC4CC4)c(Cl)c3)c2)c1 [Example 26, 6-[3-chloro-4-(cyclopropylmethoxy)phenyl]-N-[(5-methyl-2-morpholino-3-pyridyl)methyl]pyridazine-4-carboxamide]
< 0.5 µM | O=C(NCc1ccccc1N1CCOCC1)c1cnnc(-c2ccc(OCC3CC3)c(Cl)c2)c1 [Example 27, 6-[3-chloro-4-(cyclopropylmethoxy)phenyl]-N-[(2-morpholinophenyl)methyl]pyridazine-4-carboxamide]

Compound | IC50
CC(C)COc1ccc(-c2cc(C(=O)NCc3cccnc3N3CCOCC3)cnn2)cc1 [Example 5, 6-(4-isobutoxyphenyl)-N-[(2-morpholino-3-pyridyl)methyl]pyridazine-4-carboxamide] | < 0.5 µM
